Data published in patent publication US7235590B2, “Use of treosulfan and derivatives thereof for treating multiple sclerosis” (Medac Gesellschaft fur Klinische Spezialpraparate mbH, priority 2002, dated 2007).

Experiments:
[1] = system: secondary progressive MS; test: Healing trial on patients with secondary progressive MS; type: in vivo
Experimental: In the course of a first healing trial, 5 patients suffering from secondary progressive MS (SPMS patients) were treated. They consisted of 3 men […]/62 and two women […].
As part of the therapy, treosulfan was administered in the form of a solution suitable for intravenous application (infusion). The patients were treated with a dosage of 5 g/m^2 body surface in each case at intervals of 4 weeks in the first quarter. Subsequently, a single treosulfan application (5 g/m^2 of treosulfan) took place per quarter.
In the case of two patients, an improvement of the ambulation index (S. L. Hauser et al. N. Engl. J. Med. 308 (1983) 173–178) was observed.

[2] = Tolerance and haematological characterisation in MOG-EAE rats; type: in vivo, DA rats
Text: To analyse the haematological status, blood was taken from the rats on day 0, day 5, day 14, and day 53 following immunisation and a determination of haemoglobin (Hb), reticulocytes, leukocytes, thrombocytes and crythrocytes carried out.
The tolerance of treosulfan is illustration in FIGS. 5–15.

[3] = system: interleukin 12 (IL-12); test: Quantitative PCR for IL-12 in MOG-EAE rats; type: in vivo, DA rats; conditions: treatment on day 0
Text: (§1) In a second experiment, five rats each were characterised immunologically on day 12 and day 40 (total number of animals: n=30) following the immunisation with respect to T and B cell response (EliSpot (Autoimmun Diagnostika GmbH, D-72479 Strassberg) for IFN-secreting cells, proliferations, auto-antibody analysis). (R. Weissert et al., J. Immunol. 160 […], 681–690).
(§2) It was, moreover, observed that the interleukin 12 (IL-12) and/or interferon-β (IFN-β) values were reduced in the treosulfan group (FIG. 16, 17). (R. Weissert et al., J. Immunol. 166 (2001), 7588–7599).
FIG. 17: Quantitative PCR for IL-12 treatment with treosulfan on day 0.

[4] = system: myelin oligodendrocyte glycoprotein (MOG) induced experimental autoimmune encephalomyelitis (EAE); test: MOG-induced experimental autoimmune encephalomyelitis (EAE) in DA rats, clinical course; type: in vivo
Experimental: Using the example of experimental autoimmune encephalomyelitis (EAE) which is recognized as animal model of human MS, the effectiveness of treosulfan was first of all examined. […] In the first trials, treosulfan was applied on the day of immunisation, in another on day 14 following immunisation.
Firstly, several trials for the determination of the dosage of treosulfan were carried out in DA rats, a strain of rat particularly suitable for these trials (Dark Agouti strain) with myelin oligodendrocyte glycoprotein (MOG) induced experimental autoimmune encephalomyelitis (EAE). These rats represent an excellent model of multiple sclerosis (MS) since the clinical development and the lesion morphology (inflammation, demyelination, loss of axons and nerve cells) of MS can be reproduced.
DA rats (10 animals per group) were treated either with a single dose of treosulfan (0.5 g/kg bodyweight) on the day of immunisation (p.i.) or with a three times repeated treosulfan application (0.5 g/kg bodyweight per application) at intervals of 1 day. PBS (phosphate buffered salt solution) was administered as control. In a further experiment, treosulfan (single dose: 0.5 g/kg bodyweight) was administered 2 weeks after immunisation. The total number of rats was 30 animals. The animals were observed clinically for the period of 40 days after initiation of the experiment and regularly examined neurologically.
FIGS. 3 and/or 3a are different representations of the experiment in which treosulfan was administered on day 14 following immunisation.

[5] = system: interferon-β (IFN-β); test: Quantitative PCR for IFN in MOG-EAE rats; type: in vivo, DA rats; conditions: treatment on day 0
Text: as §1, §2
FIG. 16: Quantitative PCR for IFN-treatment with treosulfan on day 0.

Row | SMILES | patients with improvement of the ambulation index ([1]; 5 SPMS patients, 5 g/m^2 body surface i.v. infusion every 4 weeks in the first quarter, then once per quarter) | substance-related secondary effects ([1]; 5 SPMS patients, 5 g/m^2 i.v. infusion) | disease development in MS patients ([1]; summary statement) | tolerance ([1]; summary statement) | changes to the blood picture (Hb, reticulocytes, leukocytes, thrombocytes, erythrocytes) ([2]; blood taken day 0, 5, 14 and 53 following immunisation) | weight ([2]; single dose of 1 g/kg i.p., at the beginning of the treatment) | interleukin 12 (IL-12) values [3] | effectiveness in comparison with the untreated control group ([4]; FIGS. 1-3a) | animals still alive ([4]; day 53, untreated control group 2 out of 8) | suppression of the disease ([4]; single dose of 1 g/kg bodyweight, intraperitoneal) | disease course in contrast to untreated control group ([4]; treosulfan applied on day 14 following immunisation) | interferon-β (IFN-β) values [5] | effectiveness compared with the treosulfan group ([4]; same trial conditions, single i.p. treatment on the day of immunisation)
1 | CS(=O)(=O)OC[C@H](O)[C@@H](O)COS(C)(=O)=O [treosulfan, (2S,3S)-threitol-1,4-bismethane sulphonate] | two | No substance-related secondary effects were observed | clear improvement | extremely well tolerated | not documented | substantial decrease in weight | reduced | confirm first of all the effectiveness | 7 out of 8 | capable of suppressing the disease | stabilisation | reduced | 
2 | O=C1c2c(O)ccc(O)c2C(=O)c2c(NCCNCCO)ccc(NCCNCCO)c21 [mitoxantrone] |  |  |  |  |  |  |  |  |  |  |  |  | no greater effectiveness
